The values that follow come from patent publication US12358904B2, “Inhibitors of TYK2” (Atomwise Inc., priority 2023, dated 2025).

The target in one series is T1, TYK2-JH2 (Homo sapiens, UniProt P29597).
T1 construct: TYK JH2 enzyme mix (ChemPartnec CP20210818A-BV); purchased ChemPartner CP20210818A-BV
In words: TYK2-JH2 HTRF binding assay (ligand efficiency). The following applies: calculated from IC50 of the TYK-JH2 binding assay (Equation 1). In outline: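 His-tagged TYK2 JH2 (0.5 nM) preincubated 10 min at RT with compound (0.1–0.000005 μM) in 20 mM HEPES pH 7.5, 10 mM MgCl2, 0.01% Triton X-100, 1 mM DTT; then 35 nM tracer plus anti-6HIS Tb cryptate, 60 min RT. TR-FRET read (Ex340/Em495/520); IC50 converted to ligand efficiency.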

The subject of a further series is IL-12/pSTAT4. In words: IL-12 induced pSTAT4 assay in NK-92 cells. The class given is cell-based. The following applies: Homo sapiens, NK92, IL-12 stimulation, read-out: Cellular potency (IL-12/pSTAT4). In outline:
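Overnight-starved NK-92 cells (20K/well) pre-incubated with compounds (1000 to 0.05 nM final) 30 min at 37 °C, then stimulated with IL-12 (10 ng/ml) for 30 min at 37 °C. Lysates assayed for pSTAT4 (Tyr693) by MSD electrochemiluminescence.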

The subject of another series is IL-6/pSTAT3. In words: IL-6 induced pSTAT3 assay in TF-1 cells. The following applies: Homo sapiens, read-out: Cellular selectivity (IL-6/pSTAT3). The class given is cell-based. The method, then: The following example describes the IL-6 induced pSTAT3 assay used to determine the cellular selectivity (IL-6/pSTAT3) of the TYK2 inhibitors.
TF-1 (ATCC®, CRL-2003™) cells were cultured in RPMI 1640 Medium, with GlutaMAX™ Supplement, HEPES for Cell Culture (Life Technologies, 72400047), 10% Fetal Bovine Serum (Life Technologies, 26400044), 2 ng/mL human recombinant GM-CSF (Life Technologies, PHC2013), 1 mM Sodium pyruvate (Life Technologies, 11360039), 1% MEM NEAA (Life Technologies, 11140-035), 1% Penicillin/Streptomycin (Life Technologies, 15140-122).
TF-1 (70×10^6) cells were starved overnight in T01 50 flasks (Opti-MEM™ I Reduced Serum Medium, no phenol red (Life Technologies, 11058-021), 1 mM Na pyruvate (Life Technologies, 11360039), 1% MEM NEAA (Life Technologies, 11140-035), and 1% Penicillin/Streptomycin (Life Technologies, 15140-122)) then seeded into 96-well TPP plates (150 000 cell/well) and incubated with test compounds (Final Concentration [nM] 10000-0.05) for 30 minutes at 37° C. […] Stimulation was terminated by addition of lysis buffer (MSD K150SVD) and pSTAT3 detection was measured with Phospho-STAT3 (Tyr705) Kit MSD K150SVD)) according to manufacturer's instruction. Briefly, cell lysates were added to pre-blocked plates, sealed, and shake for 1 hour at room temperature. Plates were then washed and incubated with detection antibody for 1 hour at room temperature. After washing, Read Buffer was added, and plates were read on MSD instrument (Model 1300 MSD Quickplex SQ 120).

For another series, the system named is GM-CSF/pSTAT5. Kind of series: GM-CSF induced pSTAT5 assay in CellSensor irf1-bla TF-1 cells. The format is cell-based. The settings on record: Homo sapiens, GM-CSF 1 ng/mL, read-out: Cellular selectivity (GM-CSF induced pSTAT5). Here is the method:
The CellSensor irf1-bla TF-1 cell line (LifeTechnologies, K1657) was cultured in RPMI 1640 Medium (Invitrogen 72400-047), 10% Fetal Bovine Serum (Invitrogen, 26400044), 1 mM Sodium pyruvate (Life Technologies, 11360039), 1% MEM NEAA (Life Technologies, 11140-035), 2 ng/ml of human recombinant GM-CSF (Fisher, PHC2015), 1% Penicillin/Streptomycin (Life Technologies, 15140-122) and 5 μg/ml of Blasticidin (ThermoFisher, A1113903).
The cell line was seeded in a T75 flask at 13×10^6 cells/50 mL in starvation medium (Opti-MEM™ I Reduced Serum Medium, no phenol red (Life Technologies, 11058-021), 1 mM Na pyruvate (Life Technologies, 11360039), 1% MEM NEAA (Life Technologies, 11140-035), and 1% Penicillin/Streptomycin (Life Technologies, 15140-122)) for 16 hours at 37° C. under 5% CO2 the day before the assay.
For the assay, CellSensor irf1-bla TF-1 cells were seeded at 30 000 cells/32 μL (starvation medium)/well in a 384-well plate.
Compounds were added on the cells in 4 μL (starvation medium)/well at 10× the final concentration. They were incubated for 30 minutes at 37° C.
Human recombinant carrier-free GM-CSF (ThermoFisher, ref PHC2015) was added to the wells in 4 μL (starvation medium)/well at 10×. The final concentration was 1 ng/mL. Control wells without GM-CSF treatment were added. Plates were incubated for 5 hours at 37° C.
6× LiveBlazer-FRET substrate (Invitrogen, K1085) was added to the wells at 8 μL/well. The substrate was prepared shortly before use by mixing 6 μL of solution A and 60 μL of solution B to 934 μL of solution C. Plates were incubated for 2.5 hours at room temperature in the dark. The plates were read on an Envision (Perkin Elmer) with an excitation at a wavelength of 409 nm and two wavelengths for the emission 520 nm and 450 nm. The ratio between the […] emission was used to calculate the IC50s.
The IC50 for the inhibition of pSTAT5 was calculated with the Xlfit software using the 4 Parameter Logistic Model or Sigmoidal Dose-Response Model (model 205).

A short description of series [1]: Brain exposure pharmacokinetic study in rats. The following applies: male Sprague Dawley rats, oral gavage 10 mg/kg, plasma, CSF. The format is in vivo, rat. Here is the method: The brain exposure of exemplary compounds, e.g., 1, 2, and 4 were evaluated in male Sprague Dawley rats after oral gavage administration at 10 mg/kg. The formulation was 5% DMSO+10% PEG400 in saline. Rats were fasted overnight with food returned 4 hours post-dose. CSF was collected by direct needle puncture into the cisterna magna.
For both rat and mouse studies, brain tissue was washed with 3 volumes of saline prior to homogenization. Brain tissue was homogenized with 3 volumes (v/w) of phosphate buffered saline. Plasma, brain homogenate, and CSF samples (rat only) were analyzed by LC-MS/MS and the concentration of test compound at each time point was determined by linear regression.
Pharmacokinetic parameters were calculated from the plasma, brain, and CSF concentrations by non-compartmental modeling using WinNonlin 8.2.

T1 sequence (P29597 589-875 limits assumed): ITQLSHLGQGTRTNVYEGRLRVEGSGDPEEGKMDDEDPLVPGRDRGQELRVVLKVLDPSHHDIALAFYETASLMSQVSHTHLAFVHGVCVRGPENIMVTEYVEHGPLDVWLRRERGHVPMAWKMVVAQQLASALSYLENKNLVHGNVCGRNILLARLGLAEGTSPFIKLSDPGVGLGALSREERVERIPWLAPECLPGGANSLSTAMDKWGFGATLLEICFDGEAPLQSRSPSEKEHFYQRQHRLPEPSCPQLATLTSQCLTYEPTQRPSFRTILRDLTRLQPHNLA

On to `C[C@@H](c1ccc(Nc2cc(Nc3ncccc3S(C)(=O)=O)ncn2)nc1)N1CC2(COC2)C1` [Compound 1, (S)—N^4-(5-(1-(2-oxa-6-azaspiro[3.3]heptan-6-yl)ethyl)73yridine-2-yl)-N^6-(3-(methylsulfonyl)73yridine-2-yl)pyrimidine-4,6-diamine], for which the “Ligand Efficiency” value on TYK2-JH2 was “††† (†††: >0.39)”. In addition, the IC50 is less than 0.1 µM with IL-12/pSTAT4, greater than 10 µM with IL-6/pSTAT3 and 4 to 10 µM with GM-CSF/pSTAT5. Further, the “Brain Kpu, u” value in series [1] is listed as “†† (†† 0.1-0.2u)”.

Turning to `C[C@@H](c1ccc(Nc2cc(Nc3ncc(F)cc3S(C)(=O)=O)ncn2)nc1)N1CC2(COC2)C1` [Compound 2, (S)—N^4-(5-(1-(2-oxa-6-azaspiro[3.3]heptan-6-yl)ethyl)75yridine-2-yl)-N^6-(5-fluoro-3-(methylsulfonyl)75yridine-2-yl)pyrimidine-4,6-diamine], on TYK2-JH2, the “Ligand Efficiency” value is on record as “††† (†††: >0.39)”. The IC50 is less than 0.1 µM in the series on IL-12/pSTAT4, greater than 10 µM with IL-6/pSTAT3 and greater than 10 µM with GM-CSF/pSTAT5. Further, the “Brain Kpu, u” value in series [1] is “† († <0.1u)”.

Consider `C[C@@H](c1ccc(Nc2cc(Nc3ncccc3S(C)(=O)=O)ncn2)nc1)N(C)C` [Compound 4, (S)—N^4-(5-(1-(dimethylamino)ethyl)79yridine-2-yl)-N^6-(3-(methylsulfonyl) 79yridine-2-yl) pyrimidine-4,6-diamine], for which, on TYK2-JH2, the “Ligand Efficiency” value is reported as “††† (†††: >0.39)”. For the same compound, the figures for the IC50 with IL-12/pSTAT4, in the series on IL-6/pSTAT3 and with GM-CSF/pSTAT5 were less than 0.1 µM, 4 to 10 µM and greater than 10 µM, respectively. In series [1], the “Brain Kpu, u” value is reported as “††† (††† >0.2u)”.

For `CC(NC1CCOC1)c1ccc(Nc2cc(Nc3ccccc3S(C)(=O)=O)ncn2)nc1` (centres unmarked) [Compound 26, N^4-(2-(methylsulfonyl)phenyl)-N^6-(5-(1-(tetrahydrofuran-3-ylamino)ethyl)106yridine-2-yl)pyrimidine-4,6-diamine], at TYK2-JH2, the “Ligand Efficiency” value was “†† (††: 0.37-0.39)”. Further, the IC50 is less than 0.1 µM in the series with IL-12/pSTAT4, greater than 10 µM in the series with IL-6/pSTAT3 and greater than 10 µM in the series with GM-CSF/pSTAT5.

For the compound `CS(=O)(=O)c1ccccc1Nc1cc(Nc2ccc3c(n2)CCCC3N2CC3(CCOCC3)C2)ncn1` (centres unmarked) [Compound 27, N^4-(5-(7-oxa-2-azaspiro[3.5]nonan-2-yl)-5,6,7,8-tetrahydroquinolin-2-yl)-N^6-(2-(methylsulfonyl)phenyl)pyrimidine-4,6-diamine], the “Ligand Efficiency” value on TYK2-JH2 is recorded as “† (†: <0.37)”. In addition, the IC50 was less than 0.1 µM in the series with IL-12/pSTAT4, greater than 10 µM in the series with IL-6/pSTAT3 and greater than 10 µM in the series on GM-CSF/pSTAT5.

For `CS(=O)(=O)c1ccccc1Nc1cc(Nc2ccc(CNC3CCOC3)cn2)ncn1` (centres unmarked) [Compound 28, N^4-(2-(methylsulfonyl)phenyl)-N^6-(5-((tetrahydrofuran-3-ylamino)methyl)110yridine-2-yl)pyrimidine-4,6-diamine], the “Ligand Efficiency” value on TYK2-JH2 is “†† (††: 0.37-0.39)”. Moreover, the IC50 in the series with IL-12/pSTAT4 was less than 0.1 µM; in the series with IL-6/pSTAT3, greater than 10 µM; in the series on GM-CSF/pSTAT5, greater than 10 µM.

On to `CC(NC1CC(F)(F)C1)c1ccc(Nc2cc(Nc3ncccc3S(C)(=O)=O)ncn2)nc1` (centres unmarked) [Compound 35, N^4-(5-(1-(3,3-difluorocyclobutylamino)ethyl)122yridine-2-yl)-N^6-(3-(methylsulfonyl)122yridine-2-yl)pyrimidine-4,6-diamine], for which the “Ligand Efficiency” value on TYK2-JH2 is “††† (†††: >0.39)”. For the same compound, the IC50 with IL-12/pSTAT4 is less than 0.1 µM; in the series with IL-6/pSTAT3 it was greater than 10 µM; in the series on GM-CSF/pSTAT5 it was greater than 10 µM.

With `CC(C)(NC1COC1)c1ccc(Nc2cc(Nc3ccccc3S(C)(=O)=O)ncn2)nc1` [Compound 39, N^4-(2-(methylsulfonyl)phenyl)-N^6-(5-(2-(oxetan-3-ylamino)propan-2-yl)127yridine-2-yl)pyrimidine-4,6-diamine], the “Ligand Efficiency” value on TYK2-JH2 is given as “†† (††: 0.37-0.39)”. Besides, the IC50 was less than 0.1 µM with IL-12/pSTAT4, greater than 10 µM with IL-6/pSTAT3 and greater than 10 µM in the series on GM-CSF/pSTAT5.

On to `Cc1ccnc(Nc2cc(Nc3ccccc3S(C)(=O)=O)ncn2)c1` [Compound 44, N^4-(4-methylpyridin-2-yl)-N^6-(2-(methylsulfonyl)phenyl) pyrimidine-4,6-diamine], for which, at TYK2-JH2, the “Ligand Efficiency” value is on record as “††† (†††: >0.39)”. Moreover, the IC50 in the series with IL-12/pSTAT4 was less than 0.1 µM; in the series on IL-6/pSTAT3 it was greater than 10 µM; in the series with GM-CSF/pSTAT5 it was greater than 10 µM.

As for `Cc1ccnc(Nc2cc(Nc3ccccc3C(N)=O)ncn2)c1` [Compound 45, 2-((6-((4-methylpyridin-2-yl)amino)pyrimidin-4-yl)amino) benzamide], the “Ligand Efficiency” value on TYK2-JH2 is on record as “††† (†††: >0.39)”. In addition, the IC50 with IL-12/pSTAT4 is less than 0.1 µM; in the series on IL-6/pSTAT3, less than 4 µM; in the series with GM-CSF/pSTAT5, less than 4 µM.

Consider `Cc1cccc(Nc2cc(Nc3ccccc3C(N)=O)ncn2)n1` [Compound 46], for which the “Ligand Efficiency” value at TYK2-JH2 is “††† (†††: >0.39)”. Also, the figures for the IC50 with IL-12/pSTAT4, in the series with IL-6/pSTAT3 and with GM-CSF/pSTAT5 were less than 0.1 µM, less than 4 µM and less than 4 µM, respectively.

With `Cc1cnnc(Nc2cc(Nc3ccccc3C(N)=O)ncn2)c1` [Compound 47, 2-((6-((5-methylpyridazin-3-yl)amino)pyrimidin-4-yl)amino) benzamide], the “Ligand Efficiency” value on TYK2-JH2 is “††† (†††: >0.39)”. Besides, the IC50 in the series with IL-12/pSTAT4 was less than 0.1 µM; in the series with IL-6/pSTAT3 it was less than 4 µM; in the series with GM-CSF/pSTAT5, greater than 10 µM.

As for `Cc1cncc(Nc2cc(Nc3ccccc3C(N)=O)ncn2)n1` [Compound 49, 2-(6-(6-methylpyrazin-2-ylamino)pyrimidin-4-ylamino)benzamide], the “Ligand Efficiency” value at TYK2-JH2 was “††† (†††: >0.39)”. Besides, the IC50 with IL-12/pSTAT4 is 0.1 to 1 µM; with IL-6/pSTAT3, less than 4 µM; in the series on GM-CSF/pSTAT5 it was greater than 10 µM.

Regarding `Cc1cccc(Nc2cc(Nc3ccccc3NS(C)(=O)=O)ncn2)n1` [Compound 53, N-(2-(6-(6-methylpyridin-2-ylamino)pyrimidin-4-ylamino)phenyl) methanesulfonamide], the “Ligand Efficiency” value at TYK2-JH2 is recorded as “††† (†††: >0.39)”. The IC50 is 0.1 to 1 µM in the series on IL-12/pSTAT4, less than 4 µM with IL-6/pSTAT3 and 4 to 10 µM in the series with GM-CSF/pSTAT5.
